Laboratory results reported in patent US20260285850A1, “SUBSTITUTED OXAZOLIDINONES AND IMIDAZOLINONES AS HERBICIDES” (FMC CORPORATION, priority 2023, published 2026).

Experiments:
Type in all cases: in vivo
[1] = tested on: palmer (palmer amaranth, palmer pigweed, Amaranthus palmeri); assay: Test A postemergence application, visual injury rating 0-100
In short: (§1)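 Rating: visual, day 10, untreated plants as reference, 0 no effect to 100 full control. Plants were in loam-sand and were treated either preemergence via directed soil spray or postemergence at the one- to two-leaf stage.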

[2] = tested on: blackgrass (Alopecurus myosuroides); assay: as above
In short: as §1

[3] = tested on: ryegrass, Italian (italian ryegrass, Lolium multiflorum); assay: as above
In short: as §1

[4] = tested on: horseweed (Erigeron canadensis); assay: as above
In short: as §1

[5] = tested on: galium (catchweed bedstraw, Galium aparine); assay: as above; conditions: Postemergence, 16 g ai/ha, greenhouse 10 days; 0 no effect, 100 complete control
In short: as §1

[6] = tested on: ragweed (common ragweed, Ambrosia artemisiifolia); assay: as above
In short: as §1

kochia (Bassia scoparia) [7] = assay: as above
In short: as §1

[8] = tested on: barnyardgrass (Echinochloa crus-galli); assay: as above
In short: as §1

[9] = tested on: wheat (Triticum aestivum); assay: as above
In short: as §1

corn (Zea mays) [10] = assay: as above
In short: as §1

[11] = tested on: green foxtail (Setaria viridis); assay: as above
In short: as §1

[12] = tested on: oat, wild (wild oat, Avena fatua); assay: as above
In short: as §1

soybean (Glycine max) [13] = assay: as above
In short: as §1

[14] = tested on: palmer (palmer amaranth, palmer pigweed, Amaranthus palmeri); assay: Test A preemergence soil spray, visual injury rating 0-100; conditions: 10 days
In short: as §1

[15] = tested on: blackgrass (Alopecurus myosuroides); assay: as above; conditions: 10 days
In short: as §1

[16] = tested on: ryegrass, Italian (italian ryegrass, Lolium multiflorum); assay: as above; conditions: 10 days
In short: as §1

[17] = tested on: ragweed (common ragweed, Ambrosia artemisiifolia); assay: as above; conditions: 10 days
In short: as §1

kochia (Bassia scoparia) [18] = assay: as above; conditions: 10 days
In short: as §1

[19] = tested on: barnyardgrass (Echinochloa crus-galli); assay: as above; conditions: 10 days
In short: as §1

[20] = tested on: wheat (Triticum aestivum); assay: as above; conditions: 10 days
In short: as §1

corn (Zea mays) [21] = assay: as above; conditions: 10 days
In short: as §1

[22] = tested on: green foxtail (Setaria viridis); assay: as above; conditions: 10 days
In short: as §1

[23] = tested on: oat, wild (wild oat, Avena fatua); assay: as above; conditions: 10 days
In short: as §1

soybean (Glycine max) [24] = assay: as above; conditions: 10 days
In short: as §1

rice (Oryza sativa) = assay: Test B flooded paddy test, visual plant response rating 0-100; conditions: 250 g ai/ha, Flood, applied to paddy water, evaluated after 13 days
In short: (§2)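 2-leaf plants; flood 3 cm over soil; compound dosed into paddy water; depth kept constant; greenhouse 13 d; visual scoring vs controls. Dash = no result.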

[25] = tested on: ducksalad (Heteranthera limosa); assay: as above; conditions: 250 g ai/ha, Flood, applied to paddy water, evaluated after 13 days
In short: as §2

[26] = tested on: sedge, umbrella (small-flower umbrella sedge, Cyperus difformis); assay: as above; conditions: 250 g ai/ha, Flood, applied to paddy water, evaluated after 13 days
In short: as §2

[27] = tested on: barnyardgrass (Echinochloa crusgalli); assay: as above; conditions: 250 g ai/ha, Flood, applied to paddy water, evaluated after 13 days
In short: as §2

[28] = 62 g ai/ha, postemergence, 10 days, 0 = no effect, 100 = complete control
[29] = Postemergence, 16 g ai/ha, greenhouse 10 days, 0 no effect, 100 complete control
[30] = 62 g ai/ha, 0 = no effect, 100 = complete control

CC1(C(=O)NC2CC=C(C(=O)OCC(F)F)C2)CN(c2cc(F)cc(F)c2)C(=O)O1 (stereo not drawn) [Compound 151]
Pigweed, Palmer plant response rating (0-100) [1, 28]: 0
Pigweed, Palmer plant response rating (0 to 100 scale) [1, 29]: 0
Blackgrass plant response rating (0-100) [2, 28]: 0
Blackgrass plant response rating (0 to 100 scale) [2, 29]: 0
Ryegrass, Italian plant response rating (0-100) [3, 28]: 0
Ryegrass, Italian plant response rating (0 to 100 scale) [3, 29]: 0
Horseweed plant response rating (0-100) [4, 28]: 0
Horseweed plant response rating (0 to 100 scale) [4, 29]: 0
Galium plant response rating (0 to 100 scale) [5]: 0
Ragweed plant response rating (0-100) [6, 28]: 0
Ragweed plant response rating (0 to 100 scale) [6, 29]: 0
Kochia plant response rating (0-100) (kochia (Bassia scoparia) [7]; [28]): 0
Kochia plant response rating (0 to 100 scale) (kochia (Bassia scoparia) [7]; [29]): 0
Barnyardgrass plant response rating (0-100) [8, 28]: 20
Barnyardgrass plant response rating (0 to 100 scale) [8, 29]: 0
Wheat plant response rating (0-100) [9, 28]: 0
Wheat plant response rating (0 to 100 scale) [9, 29]: 0
Corn plant response rating (0-100) (corn (Zea mays) [10]; [28]): 0
Corn plant response rating (0 to 100 scale) (corn (Zea mays) [10]; [29]): 0
Foxtail, Green plant response rating (0-100) [11, 28]: 0
Foxtail, Green plant response rating (0 to 100 scale) [11, 29]: 0
Oat, Wild plant response rating (0-100) [12, 28]: 0
Oat, Wild plant response rating (0 to 100 scale) [12, 29]: 0
Soybean plant response rating (0-100) (soybean (Glycine max) [13]; [28]): 0
Soybean plant response rating (0 to 100 scale) (soybean (Glycine max) [13]; [29]): 0
Pigweed, Palmer plant response rating ([14]; 16 g ai/ha, 0 to 100 scale): 0
Pigweed, Palmer plant response rating (0-100) [14, 30]: 0
Blackgrass plant response rating ([15]; 16 g ai/ha, 0 to 100 scale): 0
Blackgrass plant response rating (0-100) [15, 30]: 0
Ryegrass, Italian plant response rating ([16]; 16 g ai/ha, 0 to 100 scale): 0
Ryegrass, Italian plant response rating (0-100) [16, 30]: 0
Ragweed plant response rating ([17]; 16 g ai/ha, 0 to 100 scale): 0
Ragweed plant response rating (0-100) [17, 30]: 0
Kochia plant response rating (kochia (Bassia scoparia) [18]; 16 g ai/ha, 0 to 100 scale): 0
Kochia plant response rating (0-100) (kochia (Bassia scoparia) [18]; [30]): 0
Barnyardgrass plant response rating ([19]; 16 g ai/ha, 0 to 100 scale): 0
Barnyardgrass plant response rating (0-100) [19, 30]: 0
Wheat plant response rating ([20]; 16 g ai/ha, 0 to 100 scale): 0
Wheat plant response rating (0-100) [20, 30]: 0
Corn plant response rating (corn (Zea mays) [21]; 16 g ai/ha, 0 to 100 scale): 0
Corn plant response rating (0-100) (corn (Zea mays) [21]; [30]): 0
Foxtail, Green plant response rating ([22]; 16 g ai/ha, 0 to 100 scale): 0
Foxtail, Green plant response rating (0-100) [22, 30]: 0
Oat, Wild plant response rating ([23]; 16 g ai/ha, 0 to 100 scale): 0
Oat, Wild plant response rating (0-100) [23, 30]: 0
Soybean plant response rating (soybean (Glycine max) [24]; 16 g ai/ha, 0 to 100 scale): 0
Soybean plant response rating (0-100) (soybean (Glycine max) [24]; [30]): 0
Plant response rating, Rice (0 to 100 scale, 0 is no effect and 100 is complete control) (rice (Oryza sativa)): 0
Plant response rating, Ducksalad (0 to 100 scale, 0 is no effect and 100 is complete control) [25]: 0
Plant response rating, Sedge, Umbrella (0 to 100 scale, 0 is no effect and 100 is complete control) [26]: 0
Plant response rating, Barnyardgrass (0 to 100 scale, 0 is no effect and 100 is complete control) [27]: 0
